From ChEMBL document CHEMBL3813627, “Preventive effect of a novel diosgenin derivative on arterial and venous thrombosis in vivo” (Bioorg Med Chem Lett, 2016)
The source made the active and inactive calls. The calls are words filed in the database; no cut-off is given here.

Key:
Rattus norvegicus [1] = assay: In vivo activation of coagulation factor9 in Sprague-Dawley rat at 20 mg/kg, ig bid for 7 days by automated coagulometry; format: functional, organism-based
Mus musculus [2] = assay: Toxicity in Balb/c mouse assessed as red blood cell count at 28.8 mg/kg, ig bid for 7 days (reference value: 7.55 +/- 0.59 10^12/L); format: organism-based; settings: in vivo, po, 168 h
Rattus norvegicus [3] = assay: Anti-thrombotic activity in Sprague-Dawley rat model of FeCl3-induced venous thrombosis assessed as reduction in venous thrombus weight at 46 mg/kg, ig bid for 7 days; format: functional, organism-based
Rattus norvegicus [4] = assay: Anti-thrombotic activity in Sprague-Dawley rat model of FeCl3-induced venous thrombosis assessed as reduction in venous thrombus length at 46 mg/kg, ig bid for 7 days by vernier caliper method; format: functional, organism-based
Mus musculus [5] = assay: Toxicity in Balb/c mouse assessed as hematocrit at 28.8 mg/kg, ig bid for 7 days (reference value: 40.5 +/- 3.5 %); format: organism-based; settings: in vivo, po, 168 h
Rattus norvegicus [6] = assay: Anti-thrombotic activity in Sprague-Dawley rat model of FeCl3-induced arterial thrombosis assessed as reduction in arterial thrombus length at 20 mg/kg, ig bid for 7 days by vernier caliper method; format: functional, organism-based
Mus musculus [7] = assay: Toxicity in Balb/c mouse assessed as white blood cell count at 28.8 mg/kg, ig bid for 7 days (reference value: 7.7 +/- 0.65 10^9/L); format: organism-based; settings: in vivo, po, 168 h
Rattus norvegicus [8] = assay: In vivo activation of coagulation factor12 in Sprague-Dawley rat at 20 mg/kg, ig bid for 7 days by automated coagulometry; format: functional, organism-based
Rattus norvegicus [9] = organism: Rattus norvegicus; assay: Gastric toxicity in Sprague-Dawley rat assessed as fibrotic changes treated for 49 days by hematoxylin and eosin staining based microscopic analysis; format: organism-based; settings: in vivo, 1176 h
Rattus norvegicus [10] = assay: In vivo activation of coagulation factor8 in Sprague-Dawley rat at 20 mg/kg, ig bid for 7 days by automated coagulometry; format: functional, organism-based
Rattus norvegicus [11] = assay: Anticoagulant activity in platelet-rich plasma isolated from Sprague-Dawley rat assessed as activated partial thromboplastin time at 20 mg/kg, ig bid for 7 days (reference value: 17.6 +/- 0.92 secs); format: functional
Rattus norvegicus [12] = assay: In vivo activation of coagulation factor11 in Sprague-Dawley rat at 20 mg/kg, ig bid for 7 days by automated coagulometry; format: functional, organism-based
Rattus norvegicus [13] = assay: Anti-thrombotic activity in Sprague-Dawley rat model of FeCl3-induced arterial thrombosis assessed as reduction in arterial thrombus weight at 20 mg/kg, ig bid for 7 days; format: functional, organism-based
Rattus norvegicus [14] = assay: Anticoagulant activity in platelet-rich plasma isolated from Sprague-Dawley rat assessed as prothrombin time at 20 mg/kg, ig bid for 7 days (reference value: 11.6 +/- 0.98 secs); format: functional
Mus musculus [15] = assay: Toxicity in Balb/c mouse assessed as hemoglobin count at 28.8 mg/kg, ig bid for 7 days (reference value: 143 +/- 11.9 g/L); format: organism-based; settings: in vivo, po, 168 h
Rattus norvegicus [16] = assay: In vivo activation of coagulation factor10 in Sprague-Dawley rat at 20 mg/kg, ig bid for 7 days by automated coagulometry; format: functional, organism-based
Rattus norvegicus [17] = organism: Rattus norvegicus; assay: Gastric toxicity in Sprague-Dawley rat assessed as angiogenesis treated for 49 days by hematoxylin and eosin staining based microscopic analysis; format: organism-based; settings: in vivo, 1176 h
Rattus norvegicus [18] = assay: Anticoagulant activity in platelet-rich plasma isolated from Sprague-Dawley rat assessed as thrombin time at 20 mg/kg, ig bid for 7 days (reference value: 47.1 +/- 3.1 secs); format: functional
Rattus norvegicus [19] = assay: Antiplatelet activity in platelet-rich plasma isolated from Sprague-Dawley rat assessed as ADP-induced platelet aggregation at 20 mg/kg, ig bid for 7 days measured for 5 mins by light transmission aggregometry (reference value: 57.57 +/- 2.43 %); format: functional
Rattus norvegicus [20] = organism: Rattus norvegicus; assay: Gastric toxicity in Sprague-Dawley rat assessed as gastric mucosal damage score treated for 49 days by hematoxylin and eosin staining based microscopic analysis; format: organism-based, Gastric mucosa; settings: in vivo, 1176 h
Mus musculus [21] = assay: Toxicity in Balb/c mouse assessed as platelet count at 28.8 mg/kg, ig bid for 7 days (reference value: 802 +/- 74 10^9/L); format: organism-based; settings: in vivo, po, 168 h
Mus musculus [22] = assay: Toxicity in Balb/c mouse assessed as tail bleeding time at 28.8 mg/kg, ig bid for 7 days (reference value: 186 +/- 12 sec); format: organism-based; settings: in vivo, po
Mus musculus [23] = assay: Toxicity in Balb/c mouse assessed as platelet count at 66.2 mg/kg, ig bid for 7 days (reference value: 802 +/- 74 10^9/L); format: organism-based; settings: in vivo, po, 168 h
Mus musculus [24] = assay: Toxicity in Balb/c mouse assessed as white blood cell count at 66.2 mg/kg, ig bid for 7 days (reference value: 7.7 +/- 0.65 10^9/L); format: organism-based; settings: in vivo, po, 168 h
Rattus norvegicus [25] = assay: Antiplatelet activity in platelet-rich plasma isolated from Sprague-Dawley rat assessed as ADP-induced platelet aggregation at 46 mg/kg, ig bid for 7 days measured for 5 mins by light transmission aggregometry (reference value: 57.57 +/- 2.43 %); format: functional
Mus musculus [26] = assay: Toxicity in Balb/c mouse assessed as hemoglobin count at 66.2 mg/kg, ig bid for 7 days (reference value: 143 +/- 11.9 g/L); format: organism-based; settings: in vivo, po, 168 h
Mus musculus [27] = assay: Toxicity in Balb/c mouse assessed as red blood cell count at 66.2 mg/kg, ig bid for 7 days (reference value: 7.55 +/- 0.59 10^12/L); format: organism-based; settings: in vivo, po, 168 h
Rattus norvegicus [28] = assay: Anticoagulant activity in platelet-rich plasma isolated from Sprague-Dawley rat assessed as thrombin time at 46 mg/kg, ig bid for 7 days (reference value: 47.1 +/- 3.1 secs); format: functional
Rattus norvegicus [29] = assay: Anticoagulant activity in platelet-rich plasma isolated from Sprague-Dawley rat assessed as activated partial thromboplastin time at 46 mg/kg, ig bid for 7 days (reference value: 17.6 +/- 0.92 secs); format: functional
Rattus norvegicus [30] = assay: Anticoagulant activity in platelet-rich plasma isolated from Sprague-Dawley rat assessed as prothrombin time at 46 mg/kg, ig bid for 7 days (reference value: 11.6 +/- 0.98 secs); format: functional
Mus musculus [31] = assay: Toxicity in Balb/c mouse assessed as hematocrit at 66.2 mg/kg, ig bid for 7 days (reference value: 40.5 +/- 3.5 %); format: organism-based; settings: in vivo, po, 168 h

**Q.** For `CC(=O)Oc1ccccc1C(=O)O` [ASPIRIN], which Activity (Rattus norvegicus [1]) is on record?
**A.** inactive

**Q.** What about the Activity (Mus musculus [2]) of the same compound?
**A.** 7.62 ×10¹² /L

**Q.** And the Activity (Rattus norvegicus [3])?
**A.** Active

**Q.** And the Activity (Rattus norvegicus [4])?
**A.** Active

**Q.** And the Activity (Mus musculus [5])?
**A.** 43.8%

**Q.** What about the Activity (Rattus norvegicus [6]) of the same compound?
**A.** Active

**Q.** And the Activity (Mus musculus [7])?
**A.** 7.84 ×10⁹ /L

**Q.** And the Activity (Rattus norvegicus [8])?
**A.** inactive

**Q.** What about the Activity (Rattus norvegicus [9]) of the same compound?
**A.** Toxic

**Q.** What about the Activity (Rattus norvegicus [10]) of the same compound?
**A.** inactive

**Q.** What about the APTT (Rattus norvegicus [11]) of the same compound?
**A.** 18 s

**Q.** What about the Activity (Rattus norvegicus [12]) of the same compound?
**A.** inactive

**Q.** What about the Activity (Rattus norvegicus [13]) of the same compound?
**A.** Active

**Q.** What about the PT (Rattus norvegicus [14]) of the same compound?
**A.** 10.5 s

**Q.** What about the Activity (Mus musculus [15]) of the same compound?
**A.** 150 g/L

**Q.** And the Activity (Rattus norvegicus [16])?
**A.** inactive

**Q.** What about the Activity (Rattus norvegicus [17]) of the same compound?
**A.** Toxic

**Q.** What about the TT (Rattus norvegicus [18]) of the same compound?
**A.** 45.3 s

**Q.** What about the Activity (Rattus norvegicus [19]) of the same compound?
**A.** 28.85%

**Q.** And the UI (Rattus norvegicus [20])?
**A.** 20.66

**Q.** And the Activity (Mus musculus [21])?
**A.** 651 ×10⁹ /L

**Q.** What about the Time (Mus musculus [22]) of the same compound?
**A.** > 900 s

**Q.** `C[C@@H]1CC[C@@]2(OC1)O[C@H]1C[C@H]3[C@@H]4CC=C5C[C@@H](O)CC[C@]5(C)[C@H]4CC[C@]3(C)[C@H]1[C@@H]2C` [DISOGENIN] was tested. Which Activity (Mus musculus [23]) did it give?
**A.** 788 ×10⁹ /L

**Q.** What about the Activity (Mus musculus [24]) of the same compound?
**A.** 7.99 ×10⁹ /L

**Q.** And the Activity (Rattus norvegicus [9])?
**A.** Non-toxic

**Q.** And the Activity (Rattus norvegicus [25])?
**A.** 49.14%

**Q.** And the Activity (Mus musculus [26])?
**A.** 137 g/L

**Q.** And the Activity (Rattus norvegicus [17])?
**A.** Non-toxic

**Q.** And the UI (Rattus norvegicus [20])?
**A.** 1.33

**Q.** And the Activity (Mus musculus [27])?
**A.** 7.45 ×10¹² /L

**Q.** What about the TT (Rattus norvegicus [28]) of the same compound?
**A.** 53.2 s

**Q.** What about the APTT (Rattus norvegicus [29]) of the same compound?
**A.** 19.2 s

**Q.** And the PT (Rattus norvegicus [30])?
**A.** 15.2 s

**Q.** And the Activity (Mus musculus [31])?
**A.** 39.4%
